# In ChEMBL document CHEMBL1134030, “Synthesis and structure-activity relationships of guanine analogues as phosphodiesterase 7 (PDE7) inhibitors” (Bioorg Med Chem Lett, 2001):
# Activity calls are given as the source filed them.
# Tests used:
# Phosphodiesterase 7 [1] = target: T1, Phosphodiesterase 7 (Homo sapiens, UniProt Q13946+Q9NP56); assay: Inhibition of human Phosphodiesterase 7 of HUT-78 cells at 10 uM (inactive); assay type: cell-based
# [2] = target: T2, Phosphodiesterase 4 (Homo sapiens) (UniProt P27815+Q08499+Q07343+Q08493); assay: Inhibition of guinea pig Phosphodiesterase 4 at 10 uM (inactive); assay type: protein assay; details: Cavia porcellus, target entry is the homologue from another species
# Phosphodiesterase 7 [3] = target: T1, Phosphodiesterase 7; assay: Inhibition of human Phosphodiesterase 7 of HUT-78 cells; assay type: cell-based
# [4] = target: T2, Phosphodiesterase 4 (Homo sapiens); assay: Inhibition of guinea pig Phosphodiesterase 4 at 10 uM; assay type: protein assay; details: Cavia porcellus, target entry is the homologue from another species
# [5] = target: T3, Phosphodiesterase 3 (Homo sapiens) (UniProt Q14432+Q13370); assay: Inhibition of guinea pig Phosphodiesterase 3 at 10 uM; assay type: protein assay; details: Cavia porcellus, target entry is the homologue from another species
# [6] = target: T3, Phosphodiesterase 3 (Homo sapiens); assay: Inhibition of guinea pig Phosphodiesterase 3 (PDE3) at 10 uM; assay type: protein assay; details: Cavia porcellus, target entry is the homologue from another species
# Phosphodiesterase 7 [7] = target: T1, Phosphodiesterase 7; assay: Inhibition of human Phosphodiesterase 7 of HUT-78 cells at 10 uM; assay type: cell-based
# T1 sequence (Q13946 whole entry, looked up): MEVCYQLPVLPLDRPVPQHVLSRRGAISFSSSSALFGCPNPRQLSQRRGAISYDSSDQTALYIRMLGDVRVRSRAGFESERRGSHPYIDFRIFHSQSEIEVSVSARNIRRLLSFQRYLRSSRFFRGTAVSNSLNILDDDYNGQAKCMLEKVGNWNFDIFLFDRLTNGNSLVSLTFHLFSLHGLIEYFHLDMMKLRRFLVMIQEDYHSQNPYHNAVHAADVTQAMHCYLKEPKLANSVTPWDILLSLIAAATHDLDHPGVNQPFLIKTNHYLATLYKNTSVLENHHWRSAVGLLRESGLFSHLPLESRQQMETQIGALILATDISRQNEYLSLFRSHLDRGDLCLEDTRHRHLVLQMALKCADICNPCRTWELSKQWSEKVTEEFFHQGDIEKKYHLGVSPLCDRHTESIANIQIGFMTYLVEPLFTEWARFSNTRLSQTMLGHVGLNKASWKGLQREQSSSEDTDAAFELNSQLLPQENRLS
# T1 sequence (Q9NP56 whole entry, looked up): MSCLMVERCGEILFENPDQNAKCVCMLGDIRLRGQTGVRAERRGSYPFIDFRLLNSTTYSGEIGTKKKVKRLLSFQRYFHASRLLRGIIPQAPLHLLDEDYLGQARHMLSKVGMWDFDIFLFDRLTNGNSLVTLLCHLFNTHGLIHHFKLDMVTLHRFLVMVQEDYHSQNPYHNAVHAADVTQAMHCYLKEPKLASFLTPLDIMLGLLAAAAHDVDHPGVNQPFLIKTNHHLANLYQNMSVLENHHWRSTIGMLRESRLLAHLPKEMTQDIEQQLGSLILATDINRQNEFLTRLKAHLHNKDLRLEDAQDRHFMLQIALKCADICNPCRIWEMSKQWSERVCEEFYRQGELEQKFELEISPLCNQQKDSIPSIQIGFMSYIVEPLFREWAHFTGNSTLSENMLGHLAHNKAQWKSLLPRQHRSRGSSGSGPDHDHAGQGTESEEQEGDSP
IC50 (Phosphodiesterase 7 [3]) [µM],inhibition [4] [%],inhibition (Phosphodiesterase 7 [7]) [%],SMILES,other results
,,,Oc1ncnc2c1ncn2C1CCCc2ccccc21 (centres undefined),inhibition (Phosphodiesterase 7 [1]): inactive; inhibition [2]: inactive
4.22,20,,COc1ccc2c(c1)C(n1c(Br)nc3c(O)nc(N)nc31)CCC2 (centres undefined),
2.31,42,,Nc1nc(O)c2nc(Br)n(C3CCCc4ccc([N+](=O)[O-])cc43)c2n1 (centres undefined),inhibition [5]: 19%
4.88,15,,Nc1nc(O)c2nc(Br)n(C3CCCc4ccccc43)c2n1 (centres undefined),inhibition [6]: 30%
,27,22,Nc1nc(O)c2nc(Br)n(C3CCc4ccccc43)c2n1 (centres undefined),
1.31,10,,Nc1nc(O)c2nc(Br)n(C3CCCc4cccc(Br)c43)c2n1 (centres undefined),inhibition [5]: 14%
,13,10,Nc1nc(O)c2nc(Br)n(C3CCCCc4ccc(F)cc43)c2n1 (centres undefined),
,7,4,Nc1nc(O)c2ncn(C3CCCc4ccccc43)c2n1 (centres undefined),
